Among the data in US20250270217A1, “IMIDAZ0[1,2-A]PYRIMIDINE-5(1 H)-ONES HAVING A COVALENT WARHEAD AT THE 3-POSITION AS WRN INHIBITORS” (Incyte Corporation, priority 2023, published 2025) are IC50 values, retold here.

Counter-ions that a name gives are not always drawn.

Assay [1] deals with T1, WRN (Homo sapiens, UniProt Q14191).
T1 construct: A His-tagged construct of WRN (AA S2-S1235) was produced and used for the ATPase assay; His; made in house; host or cells: Sf9 insect cells (baculovirus)
The assay is described as follows: WRN Helicase activity assay (fluorescence DNA unwinding). The following applies: 1-hr pre-incubation with enzyme; 100 μM ATP, 25 nM forked dsDNA, 1 nM WRN; geometric mean of at least 2 replicates. It is filed as biochemical. The protocol:
Compounds of the examples were tested for WRN helicase activity. DNA encoding the target protein, 6×HIS-TEV-WRN-517-945, was produced, cloned and transfected as detailed in Example D. To determine the inhibitory properties of the compounds, a 384 wells plate-based Helicase assay was set up to measure the extent of DNA unwinding (Helicase) activity of WRN. The WRN Helicase assay was designed to measure increase in fluorescence signal using a fluorescence based, donor-quencher paired forked dsDNA oligomer substrate (custom synthesis from Sigma-Aldrich) prepared by annealing equal amounts of oligo GPat-1 ([BHQ2][…]) and oligo GPat-2 ([…][TAM]). Continuous measurement of fluorescent signal was used to optimize the buffer conditions, concentration of enzyme (WRN), concentration of substrates (ATP & dsDNA), and the linearity of the Helicase reaction. All solutions were prepared in the following assay buffer: 50 mM Tris-HCl, pH-7.5, 2 mM MgCl2, 50 mM NaCl, 1 mM EGTA, 0.01% P-20, 0.05% BSA, and 2 mM DTT prepared with nuclease free water.
A serial dilution (1:3 scheme) of the compounds was prepared in neat DMSO and 100 nL of the compounds was dispensed in the Greiner black low volume (Greiner #784076) 384 wells assay plate. An 1-hr pre-incubation of the compounds with enzyme was included. A His-tagged construct of WRN (AA S2-S1235) was produced and used for the ATPase assay. Maximum inhibition control wells were set up with the addition of only assay buffer, and no inhibition control wells were set up with neat DMSO without test compounds. The reaction was initiated by addition of 5 μL substrate mix (200 μM ultrapure ATP, and 50 nM dsDNA prepared in assay buffer) and incubated at 25° C. for 35 min. A typical Helicase reaction consists of 25 nM forked dsDNA, 100 μM ATP, and 1 nM WRN prepared in assay buffer. The WRN Helicase reaction was quenched by the addition of 5 μL ‘STOP’ solution containing 100 mM EDTA (final EDTA concentration 33.33 mM) prepared in assay buffer. The plates were read on BMG PHERAstar FSX using 540/590 module to measure an increase of fluorescence. Data analysis was carried out using the Genedata software following % of control normalization. Fitting parameters include dose response IC50, Hill slope (n), maximum inhibition (S∞), and minimum inhibition (S0). The reported IC50 values for compounds in this invention are the geometric means of at least 2 independent replicates.

Assay [2] concerns the target T1, WRN. The assay is described as follows: WRN ATPase activity assay (ADP-Glo). The assay is classed as biochemical. The following applies: 1-hr pre-incubation with enzyme; 100 μM ATP, 25 nM forked dsDNA, 1 nM WRN; geometric mean of at least 2 replicates. The protocol:
Compounds of the Examples were tested for WRN ATPase activity. WRN ATPase activity catalyzes ATP hydrolysis to produce ADP and phosphate. DNA encoding the target protein, 6×HIS-TEV-WRN-517-945, was produced, cloned and transfected as detailed in Example D. The amount of ADP produced was measured using ADP-Glo™ Kinase Assay kit from Promega Corporation in a Greiner white regular volume 384 wells assay plate (Greiner #781075). Data was normalized to a standard curve generated using various ADP concentrations and the corresponding luminescent signal intensities at each concentration. The assay conditions were optimized for enzyme concentration (WRN), substrate concentrations (ATP & dsDNA), and the linearity of the ATPase reaction, in the following assay buffer: 50 mM Tris-HCl, pH-7.5, 2 mM MgCl2, 50 mM NaCl, 1 mM EGTA, 0.01% P-20, 0.05% BSA, and 2 mM DTT prepared with nuclease free water.
A serial dilution (1:3 scheme) of the compounds were prepared in neat DMSO, with 100 nL of the compounds dispensed in the 384 wells assay plate. An 1-hr pre-incubation of the compounds with enzyme was included. A His-tagged construct of WRN (AA S2-S1235) was produced and used for the ATPase assay. Maximum inhibition control wells were set up with the addition of only assay buffer, and no inhibition control wells were set up with neat DMSO without test compounds. The reaction was initiated by addition of 5 μL substrate mix (200 μM ultrapure ATP, and 50 nM dsDNA prepared in assay buffer) and incubated at 25° C. for 35 min. A forked dsDNA oligomer substrate was prepared by annealing equal amounts of oligo GPat-1 ([BHQ2][…]) and oligo GPat-2 ([…][TAM]) and was used as dsDNA substrate for WRN ATPase assay. A typical ATPase reaction consists of 25 nM forked dsDNA, 100 μM ATP, and 1 nM WRN prepared in assay buffer. The WRN ATPase reaction was stopped by the addition of 5 μL of ADP-Glo Reagent from ADP-Glo™ Kinase Assay kit and incubated for 40 min to deplete the unreacted ATP. Afterwards, 5 μL of Kinase Detection Reagent from the ADP-Glo™ Kinase Assay kit was added and incubated for 1 hr for the development of luminescence signal.
Luminesce signals were measured on BMG PHERAstar FSX using luminescence protocol. Data analysis was carried out using Genedata software following % of control normalization. Fitting parameters include dose response IC50, Hill slope (n), maximum inhibition (S∞), and minimum inhibition (S0). The reported IC50 values for compounds in this invention are the geometric means of at least 2 independent replicates.

T1 sequence (Q14191 2-1235): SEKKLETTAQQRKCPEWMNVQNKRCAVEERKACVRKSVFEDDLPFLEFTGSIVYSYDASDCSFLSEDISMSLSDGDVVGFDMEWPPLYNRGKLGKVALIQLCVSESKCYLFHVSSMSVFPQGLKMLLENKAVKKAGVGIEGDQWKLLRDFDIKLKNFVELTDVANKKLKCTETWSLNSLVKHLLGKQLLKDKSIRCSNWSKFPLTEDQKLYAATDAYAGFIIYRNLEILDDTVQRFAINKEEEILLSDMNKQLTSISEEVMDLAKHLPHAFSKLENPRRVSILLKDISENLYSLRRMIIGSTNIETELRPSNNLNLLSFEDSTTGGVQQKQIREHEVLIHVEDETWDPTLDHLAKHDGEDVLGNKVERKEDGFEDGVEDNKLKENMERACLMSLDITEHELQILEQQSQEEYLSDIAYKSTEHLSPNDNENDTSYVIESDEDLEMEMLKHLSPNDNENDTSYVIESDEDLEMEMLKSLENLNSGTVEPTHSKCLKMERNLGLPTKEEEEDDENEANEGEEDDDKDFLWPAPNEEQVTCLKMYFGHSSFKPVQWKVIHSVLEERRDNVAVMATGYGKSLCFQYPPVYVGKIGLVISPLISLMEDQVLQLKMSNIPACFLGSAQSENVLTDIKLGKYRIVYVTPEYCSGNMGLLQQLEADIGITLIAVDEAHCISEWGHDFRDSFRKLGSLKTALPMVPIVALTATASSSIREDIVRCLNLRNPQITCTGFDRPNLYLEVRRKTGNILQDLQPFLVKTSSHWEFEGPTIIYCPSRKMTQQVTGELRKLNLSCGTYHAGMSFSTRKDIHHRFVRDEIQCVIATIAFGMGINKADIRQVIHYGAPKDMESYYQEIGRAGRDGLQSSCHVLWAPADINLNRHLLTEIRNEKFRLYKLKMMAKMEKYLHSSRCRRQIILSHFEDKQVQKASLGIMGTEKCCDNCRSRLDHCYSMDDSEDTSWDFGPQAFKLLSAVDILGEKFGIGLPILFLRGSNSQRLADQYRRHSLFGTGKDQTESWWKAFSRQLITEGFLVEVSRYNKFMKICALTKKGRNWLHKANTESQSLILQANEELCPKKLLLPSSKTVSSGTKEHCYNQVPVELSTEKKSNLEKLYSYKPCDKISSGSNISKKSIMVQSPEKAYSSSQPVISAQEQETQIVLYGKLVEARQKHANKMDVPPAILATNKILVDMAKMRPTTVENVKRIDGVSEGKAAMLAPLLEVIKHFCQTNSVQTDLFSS

Usually IC50 stands for the midpoint of a concentration-inhibition curve. With `C=CC(=O)Nc1cc(C(=O)NCCOC)ccc1-c1c(CC)nc2n(CC(=O)Nc3ccc(C(F)(F)F)cc3)c(C)c(C)n2c1=O` [Example 31, 3-Acrylamido-4-(7-ethyl-2,3-dimethyl-5-oxo-1-(2-oxo-2-((4-(trifluoromethyl)phenyl)amino)ethyl)-1,5-dihydroimidazo[1,2-a]pyrimidin-6-yl)-N-(2-methoxyethyl)benzamide], the IC50 at WRN [1] and at WRN [2] was < 100 nM in each case.

As to `C=CC(=O)Nc1cc(C(=O)NC2CCOCC2)ccc1-c1c(CC)nc2n(CC(=O)Nc3ccc(C(F)(F)F)cc3)c(C)c(C)n2c1=O` [Example 32, 3-Acrylamido-4-(7-ethyl-2,3-dimethyl-5-oxo-1-(2-oxo-2-((4-(trifluoromethyl)phenyl)amino)ethyl)-1,5-dihydroimidazo[1,2-a]pyrimidin-6-yl)-N-(tetrahydro-2H-pyran-4-yl)benzamide], the IC50 against WRN [1] and against WRN [2] was < 100 nM each time.

In the case of `C=CC(=O)Nc1cc(C(=O)N[C@H]2CCCOC2)ccc1-c1c(CC)nc2n(CC(=O)Nc3ccc(C(F)(F)F)cc3)c(C)c(C)n2c1=O` [Example 33, (S)-3-Acrylamido-4-(7-ethyl-2,3-dimethyl-5-oxo-1-(2-oxo-2-((4-(trifluoromethyl)phenyl)amino)ethyl)-1,5-dihydroimidazo[1,2-a]pyrimidin-6-yl)-N-(tetrahydro-2H-pyran-3-yl)benzamide], the IC50 against WRN [1] and against WRN [2] was < 100 nM each time.

With `C=CC(=O)Nc1cc(C(=O)NC2(CO)CC2)ccc1-c1c(CC)nc2n(CC(=O)Nc3ccc(C(F)(F)F)cc3)c(C)c(C)n2c1=O` [Example 34, 3-Acrylamido-4-(7-ethyl-2,3-dimethyl-5-oxo-1-(2-oxo-2-((4-(trifluoromethyl)phenyl)amino)ethyl)-1,5-dihydroimidazo[1,2-a]pyrimidin-6-yl)-N-(1-(hydroxymethyl)cyclopropyl)benzamide], the IC50 on WRN [1] and against WRN [2] was < 100 nM each time.

For `C=CC(=O)Nc1cc(C(=O)N2CCOCC2)ccc1-c1c(CC)nc2n(CC(=O)Nc3ccc(C(F)(F)F)cc3)c(C)c(C)n2c1=O` [Example 35, N-(2-(7-Ethyl-2,3-dimethyl-5-oxo-1-(2-oxo-2-((4-(trifluoromethyl)phenyl)amino)ethyl)-1,5-dihydroimidazo[1,2-a]pyrimidin-6-yl)-5-(morpholine-4-carbonyl)phenyl)acrylamide], the IC50 against WRN [1] and at WRN [2] was < 100 nM throughout.

`C=CC(=O)Nc1ccccc1-c1cn(CC(=O)Nc2ccc(C(F)(F)F)cc2)c2nc(CC)c(N3CCN(C(=O)c4ncccc4O)CC3)c(=O)n12` [Example 36, N-(2-(7-Ethyl-6-(4-(3-hydroxypicolinoyl)piperazin-1-yl)-5-oxo-1-(2-oxo-2-((4-(trifluoromethyl)phenyl)amino)ethyl)-1,5-dihydroimidazo[1,2-a]pyrimidin-3-yl)phenyl)acrylamide]: the IC50 at WRN [1] and against WRN [2] was < 100 nM each time.

With `C=CC(=O)Nc1ccccc1-c1c(C)n(CC(=O)Nc2ccc(F)cc2)c2nc(CC)c(-c3ccccc3)c(=O)n12` [Example 37, N-(2-(7-Ethyl-1-(2-((4-fluorophenyl)amino)-2-oxoethyl)-2-methyl-5-oxo-6-phenyl-1,5-dihydroimidazo[1,2-a]pyrimidin-3-yl)phenyl)acrylamide], the half-inhibitory concentration (IC50) at WRN [1] and against WRN [2] was < 100 nM in each case.

Turning to `C=CS(=O)(=O)Nc1ccccc1-c1c(C)n(CC(=O)Nc2ccc(F)cc2)c2nc(CC)c(-c3ccccc3)c(=O)n12` [Example 38, 2-(7-Ethyl-2-methyl-5-oxo-6-phenyl-3-(2-(vinylsulfonamido)phenyl)imidazo[1,2-a]pyrimidin-1(5H)-yl)-N-(4-fluorophenyl)acetamide], the half-maximal inhibitory concentration (IC50) at WRN [1] and against WRN [2] was < 100 nM in each case.

On to `C=CC(=O)Nc1ccccc1-c1c(C)n(CC(=O)Nc2ccc(C(F)(F)F)cc2)c2nc(CC)c(C)c(=O)n12` [Example 39, N-(2-(7-Ethyl-2,6-dimethyl-5-oxo-1-(2-oxo-2-((4-(trifluoromethyl)phenyl)amino)ethyl)-1,5-dihydroimidazo[1,2-a]pyrimidin-3-yl)phenyl)acrylamide], for which the IC50 on WRN [1] and at WRN [2] was 100 to 500 nM each time.

`C=CC(=O)Nc1ccccc1-c1c(C)n(CC(=O)Nc2ccc(C(F)(F)F)cc2)c2nc(CC)c(-c3ccc(C(=O)NCC)cc3)c(=O)n12` [Example 40, 4-(3-(2-Acrylamidophenyl)-7-ethyl-2-methyl-5-oxo-1-(2-oxo-2-((4-(trifluoromethyl)phenyl)amino)ethyl)-1,5-dihydroimidazo[1,2-a]pyrimidin-6-yl)-N-ethylbenzamide, trifluoroacetate salt]: the IC50 at WRN [1] and at WRN [2] was < 100 nM in each case.

For the compound `C=CC(=O)Nc1ccccc1-c1c(C)n(CC(=O)Nc2ccc(C(F)(F)F)cc2)c2nc(CC)c(-c3ccc(C(=O)NC)nc3)c(=O)n12` [Example 41, 5-(3-(2-Acrylamidophenyl)-7-ethyl-2-methyl-5-oxo-1-(2-oxo-2-((4-(trifluoromethyl)phenyl)amino)ethyl)-1,5-dihydroimidazo[1,2-a]pyrimidin-6-yl)-N-methylpicolinamide, trifluoroacetate salt], the IC50 on WRN [1] and on WRN [2] was < 100 nM in each case.

As to `C=CC(=O)Nc1c(Cl)cccc1-c1c(CC)nc2n(CC(=O)Nc3ccc(F)cc3)c(C)c(C)n2c1=O` [Example 42, N-(2-chloro-6-(7-ethyl-1-(2-((4-fluorophenyl)amino)-2-oxoethyl)-2,3-dimethyl-5-oxo-1,5-dihydroimidazo[1,2-a]pyrimidin-6-yl)phenyl)acrylamide], the IC50 against WRN [1] and against WRN [2] was < 100 nM in each case.

For `C=CC(=O)Nc1c(Cl)cccc1-c1c(CC)nc2n(CC(=O)Nc3ccc(Cl)cc3)c(C)cn2c1=O` [Example 43, N-(2-chloro-6-(1-(2-((4-chlorophenyl)amino)-2-oxoethyl)-7-ethyl-2-methyl-5-oxo-1,5-dihydroimidazo[1,2-a]pyrimidin-6-yl)phenyl)acrylamide], the IC50 against WRN [1] and on WRN [2] was < 100 nM in each case.

For the compound `C=CC(=O)Nc1c(Cl)cccc1-c1c(CC)nc2n(CC(=O)Nc3ccc(Cl)cc3Cl)c(C)cn2c1=O` [Example 44, N-(2-chloro-6-(1-(2-((2,4-dichlorophenyl)amino)-2-oxoethyl)-7-ethyl-2-methyl-5-oxo-1,5-dihydroimidazo[1,2-a]pyrimidin-6-yl)phenyl)acrylamide], the IC50 against WRN [1] and on WRN [2] was < 100 nM each time.
